Measurements published in patent US11312712B2, “Azabenzimidazoles and their use as AMPA receptor modulators” (Janssen Pharmaceutica NV, priority 2015, dated 2022).

biological target: GluA1o-γ8 (GRIA1o-CACNG8 fusion construct) (Homo sapiens (Human), UniProt P42261+Q8WXS5); assay: Calcium flux assay (FLIPR), inhibition of TARP γ8 dependent AMPA receptor activity; type: cell-based; conditions: GluA1o-γ8 (GRIA1o-CACNG8 fusion) in HEK293 cells, calcium flux after 15 μM glutamate
Outline: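 Glutamate (15 μM) was added to a stable HEK293 line carrying the GluA1o–γ8 fusion, which had been preincubated with compound and calcium dye in HEPES buffer, pH 7.4. Normalized FLIPR fluorescence (no compound vs 10 μM CP465022) was fitted with four parameters; pIC50 is the midpoint's negative log.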

Sequence of GluA1o-γ8 (GRIA1o-CACNG8 fusion construct) (P42261 other isoform, or with tags, fused parts or gaps): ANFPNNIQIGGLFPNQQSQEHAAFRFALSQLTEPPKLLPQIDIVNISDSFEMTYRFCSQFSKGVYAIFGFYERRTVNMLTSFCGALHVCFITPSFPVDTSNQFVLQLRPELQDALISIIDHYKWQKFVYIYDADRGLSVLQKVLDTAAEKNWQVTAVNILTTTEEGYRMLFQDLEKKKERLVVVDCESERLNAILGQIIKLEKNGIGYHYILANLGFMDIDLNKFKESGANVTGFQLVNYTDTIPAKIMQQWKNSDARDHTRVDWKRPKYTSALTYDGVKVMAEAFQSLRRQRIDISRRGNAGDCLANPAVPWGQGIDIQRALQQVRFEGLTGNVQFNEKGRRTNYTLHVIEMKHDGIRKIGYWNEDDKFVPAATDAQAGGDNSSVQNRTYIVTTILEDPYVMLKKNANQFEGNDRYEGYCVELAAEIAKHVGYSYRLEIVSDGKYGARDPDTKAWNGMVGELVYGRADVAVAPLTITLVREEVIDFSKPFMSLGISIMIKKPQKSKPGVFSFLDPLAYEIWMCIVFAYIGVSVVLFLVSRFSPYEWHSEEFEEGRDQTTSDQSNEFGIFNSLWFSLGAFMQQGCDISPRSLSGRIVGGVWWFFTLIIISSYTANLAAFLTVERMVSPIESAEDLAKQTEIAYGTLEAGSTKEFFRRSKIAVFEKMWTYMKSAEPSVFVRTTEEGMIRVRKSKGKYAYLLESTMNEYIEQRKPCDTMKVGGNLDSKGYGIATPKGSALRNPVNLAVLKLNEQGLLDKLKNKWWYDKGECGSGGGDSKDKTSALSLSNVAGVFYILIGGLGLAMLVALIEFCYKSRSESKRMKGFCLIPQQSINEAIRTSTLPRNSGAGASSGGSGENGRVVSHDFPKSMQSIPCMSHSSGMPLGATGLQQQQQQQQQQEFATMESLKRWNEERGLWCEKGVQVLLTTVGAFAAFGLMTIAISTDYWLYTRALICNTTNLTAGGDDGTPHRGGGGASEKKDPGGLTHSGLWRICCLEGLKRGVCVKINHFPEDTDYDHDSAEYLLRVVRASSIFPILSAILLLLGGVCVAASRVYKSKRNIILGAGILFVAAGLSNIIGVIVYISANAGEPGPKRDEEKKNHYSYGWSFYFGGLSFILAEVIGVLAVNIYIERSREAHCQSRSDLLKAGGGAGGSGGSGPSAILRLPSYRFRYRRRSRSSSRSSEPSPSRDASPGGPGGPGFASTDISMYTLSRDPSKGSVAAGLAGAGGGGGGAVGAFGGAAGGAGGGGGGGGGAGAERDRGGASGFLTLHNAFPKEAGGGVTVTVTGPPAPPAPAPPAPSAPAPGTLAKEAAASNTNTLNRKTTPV

SMILES | IC50 [nM]
Cc1cc2ccc(C(F)(F)F)nc2n1-c1ccc2[nH]ncc2c1 [Example 354, 5-(2-Methyl-6-(trifluoromethyl)-1H-pyrrolo[2,3-b]pyridin-1-yl)-1H-indazole] | 0.501
Cc1cc2ccc(C(F)(F)F)nc2n1-c1ccc2[nH]c(=O)sc2c1 [Example 355, 6-(2-Methyl-6-(trifluoromethyl)-1H-pyrrolo[2,3-b]pyridin-1-yl)benzo[d]thiazol-2(3H)-one] | 0.02
CC(C)c1cc2cccnc2n1-c1cc(Cl)c2[nH]ncc2c1 [Example 356, 1-(7-Chloro-1H-indazol-5-yl)-2-isopropyl-pyrrolo[2,3-b]pyridine] | 0.02
CC(C)c1cc2cccnc2n1-c1cc(Cl)c2c(c1)CC(=O)N2 [Example 357, 7-Chloro-5-(2-isopropylpyrrolo[2,3-b]pyridin-1-yl)indolin-2-one] | 0.0316
Cc1cc(-n2c(C(C)C)cc3cccnc32)cc2c1NC(=O)C2 [Example 358, 5-(2-Isopropylpyrrolo[2,3-b]pyridin-1-yl)-7-methyl-indolin-2-one] | 0.2
Cc1cc(-n2c(C3CC3)cc3cccnc32)cc2c1NC(=O)C2 [Example 359, 5-(2-Cyclopropylpyrrolo[2,3-b]pyridin-1-yl)-7-methyl-indolin-2-one] | 10
Cc1ccc2cc(C(C)C)n(-c3cc(C)c4c(c3)CC(=O)N4)c2n1 [Example 360, 5-(2-Isopropyl-6-methyl-pyrrolo[2,3-b]pyridin-1-yl)-7-methyl-indolin-2-one] | 0.0631
CC(C)c1cc2cccnc2n1-c1cc(F)c2c(c1)CC(=O)N2 [Example 361, 7-Fluoro-5-(2-isopropylpyrrolo[2,3-b]pyridin-1-yl)indolin-2-one] | 7.94
Cc1ccc2cc(C(C)C)n(-c3cc(F)c4c(c3)CC(=O)N4)c2n1 [Example 362, 7-Fluoro-5-(2-isopropyl-6-methyl-pyrrolo[2,3-b]pyridin-1-yl)indolin-2-one] | 0.0398
Cc1cc2cccnc2n1-c1cc(F)c2c(c1)CC(=O)N2 [Example 363, 7-Fluoro-5-(2-methylpyrrolo[2,3-b]pyridin-1-yl)indolin-2-one] | 200
Cc1cc2ccc(C(F)(F)F)nc2n1-c1cc(F)c2c(c1)CC(=O)N2 [Example 364, 7-Fluoro-5-[2-methyl-6-(trifluoromethyl)pyrrolo[2,3-b]pyridin-1-yl]indolin-2-one] | 3160
COCc1cc2ccc(C(F)(F)F)nc2n1-c1cc(F)c2c(c1)CC(=O)N2 [Example 366, 7-Fluoro-5-[2-(methoxymethyl)-6-(trifluoromethyl)pyrrolo[2,3-b]pyridin-1-yl]indolin-2-one] | 0.631
Cc1cc(-n2c(C(C)C)cc3ccc(C(F)(F)F)nc32)cc2c1NC(=O)C2 [Example 367, 5-[2-Isopropyl-6-(trifluoromethyl)pyrrolo[2,3-b]pyridin-1-yl]-7-methyl-indolin-2-one] | 0.0251
CC(C)c1cc2ccc(C(F)(F)F)nc2n1-c1cc(F)c2c(c1)CC(=O)N2 [Example 369, 7-Fluoro-5-[2-isopropyl-6-(trifluoromethyl)pyrrolo[2,3-b]pyridin-1-yl]indolin-2-one] | 0.00794
Cc1cc(-n2c(C(C)C)cc3ccc(C(F)(F)F)nc32)cc2cn[nH]c12 [Example 370, 2-Isopropyl-1-(7-methyl-1H-indazol-5-yl)-6-(trifluoromethyl)pyrrolo[2,3-b]pyridine] | 0.00794
Cc1cc(-n2c(CCCF)cc3ccc(C(F)(F)F)nc32)cc2cn[nH]c12 [Example 371, 2-(3-Fluoropropyl)-1-(7-methyl-1H-indazol-5-yl)-6-(trifluoromethyl)pyrrolo[2,3-b]pyridine] | 0.0398

SMILES | IC50 [nM]
FCCCc1cc2ccc(C(F)(F)F)nc2n1-c1cc(Cl)c2[nH]ncc2c1 [Example 372, 1-(7-Chloro-1H-indazol-5-yl)-2-(3-fluoropropyl)-6-(trifluoromethyl)pyrrolo[2,3-b]pyridine] | 0.0316
Cc1cc(-n2c(C)cc3ccc(C(F)(F)F)nc32)cc2cn[nH]c12 [Example 373, 2-Methyl-1-(7-methyl-1H-indazol-5-yl)-6-(trifluoromethyl)pyrrolo[2,3-b]pyridine] | 0.0501
Cc1cc2ccc(C(F)(F)F)nc2n1-c1cc(Cl)c2[nH]ncc2c1 [Example 374, 1-(7-Chloro-1H-indazol-5-yl)-2-methyl-6-(trifluoromethyl)pyrrolo[2,3-b]pyridine] | 0.0126
Cc1cc(-n2c(C)cc3cccnc32)cc2cn[nH]c12 [Example 375, 2-Methyl-1-(7-methyl-1H-indazol-5-yl)pyrrolo[2,3-b]pyridine] | 10
CC(C)c1cc2ccc(C(F)(F)F)nc2n1-c1cnc2[nH]ncc2c1 [Example 376, 5-[2-Isopropyl-6-(trifluoromethyl)pyrrolo[2,3-b]pyridin-1-yl]-1H-pyrazolo[3,4-b]pyridine] | 0.0501
Cc1cc(-n2ccc3ccc(C(F)(F)F)nc32)cc2cn[nH]c12 [Example 377, 1-(7-Methyl-1H-indazol-5-yl)-6-(trifluoromethyl)pyrrolo[2,3-b]pyridine] | 2
Cc1ccc2ccn(-c3cc(C)c4c(c3)CC(=O)N4)c2n1 [Example 378, 7-Methyl-5-(6-methylpyrrolo[2,3-b]pyridin-1-yl)indolin-2-one] | 100
Cc1ccc2ccn(-c3cc(F)c4c(c3)CC(=O)N4)c2n1 [Example 379, 7-Fluoro-5-(6-methylpyrrolo[2,3-b]pyridin-1-yl)indolin-2-one] | 100
Cc1ccc2cc(C3CC3)n(-c3ccc4c(c3)CC(=O)N4)c2n1 [Example 380, 5-(2-Cyclopropyl-6-methyl-pyrrolo[2,3-b]pyridin-1-yl)indolin-2-one] | 1
Cc1ccc2cc(-c3ccc(F)cc3)n(-c3ccc4[nH]ccc4c3)c2n1 [Example 381, 2-(4-Fluorophenyl)-1-(1H-indol-5-yl)-6-methyl-pyrrolo[2,3-b]pyridine] | 5.01
Cc1ccc2cc(-c3ccc(F)cc3)n(-c3ccc4c(c3)CC(=O)N4)c2n1 [Example 382, 5-[2-(4-Fluorophenyl)-6-methyl-pyrrolo[2,3-b]pyridin-1-yl]indolin-2-one] | 0.398
O=C1Cc2cc(-n3c(-c4ccc(F)cc4)cc4ccc(Cl)nc43)ccc2N1 [Example 383, 5-[6-Chloro-2-(4-fluorophenyl)pyrrolo[2,3-b]pyridin-1-yl]indolin-2-one] | 0.1
COc1ccc2cc(-c3ccc(F)cc3)n(-c3ccc4c(c3)CC(=O)N4)c2n1 [Example 384, 5-[2-(4-Fluorophenyl)-6-methoxy-pyrrolo[2,3-b]pyridin-1-yl]indolin-2-one] | 5.01
Fc1ccc(-c2cc3ccc(Cl)nc3n2-c2ccc3[nH]ccc3c2)cc1 [Example 385, 6-Chloro-2-(4-fluorophenyl)-1-(1H-indol-5-yl)pyrrolo[2,3-b]pyridine] | 15.8
CC(C)(C)Oc1ccc2cc(-c3ccc(F)cc3)n(-c3ccc4[nH]ccc4c3)c2n1 [Example 386, 6-tert-Butoxy-2-(4-fluorophenyl)-1-(1H-indol-5-yl)pyrrolo[2,3-b]pyridine] | 1580
Fc1ccc(-c2cc3ccc(C(F)(F)F)nc3n2-c2ccc3[nH]ccc3c2)cc1 [Example 387, 2-(4-Fluorophenyl)-1-(1H-indol-5-yl)-6-(trifluoromethyl)pyrrolo[2,3-b]pyridine] | 6.31
